One data set has as its system nitrosoamine-induced pancreatic cancer. Kind of data set: laser irradiation to the extirpated organ (excited fluorescent spectrum, N2-PLS measurement), tumor to tissue ratio. Format: in vivo, Golden hamsters. The following applies: i.v. 25 mg/kg bodyweight, organs extirpated at 24 hours after administration. Here is the method: Golden hamsters (males, 5 per group, bodyweight approximately 150 g) were implanted subcutaneously tumor cells of the nitrosoamine-induced pancreatic cancer. After 14 to 21 days following implantation, animals were intravenously (i.v.) administered the test substance EG-Ga-DP-diGly (10 mg/ml) which had been diluted with phosphate buffer at 25 mg/kg bodyweight. At 24 hours after administration, the organs including the tumor were extirpated, irradiated with N2-pulsed laser (N2, 337 nm, 2 ns, 400 - 1000 nm), and measured of excited fluorescent spectrum. The wavelengths of 600 - 900 nm were studied using the peak wavelength of NADH at 470 nm as a reference. (N2-PLS measurement). […] (Tumor to tissue ratio).
Excited fluorescent spectra of the organs extirpated at 24 hours after administration were measured, and the peak wavelength at 600 - 900 nm was calculated by setting the peak wavelength at 470 nm as the reference 1. As fluorescence in Mn, Fe and Cu complexes is not sufficiently intense as to enable N2-PLS measurement, the extraction method was applied to these compounds. At 24 hours following administration, the organs were extracted with an organic solvent (such as chloroform-methanol) via acetone powder, and the obtained extract was measured of UV or HPLC to calculate the tumor to tissue ratio.
Consider `C=CC1=C(C)C2=Cc3c(C(C)OCCO)c(C)c4[n]3[Ga][n]3c(c(C)c(CCC(=O)NC(CC(=O)O)C(=O)O)c3=CC3=NC(=C4)C(C)=C3CCC(=O)NC(CC(=O)O)C(=O)O)=CC1=N2` (stereo not drawn) [(2) monoEG-Ga-DP-diAsp, 2-[1-(2-hydroxyethyloxy)ethyl]-4-ethenyl-Ga-deuteroporphynyl diaspartic acid], for which the tumor/tissue cancer/ kidney worked out at 1.32, the tumor/tissue cancer/ liver amounted to 2.30 and the tumor/tissue cancer/ lung is recorded as 1.50.

On to `CC1=C(CCC(=O)NC(CC(=O)O)C(=O)O)C2=NC1=Cc1c(C)c(C(C)OCCO)c3[n]1[Ga][n]1c(c(C)c(CCC(=O)NC(CC(=O)O)C(=O)O)c1=C2)=CC1=NC(=C3)C(C)=C1C(C)OCCO` (stereo not drawn) [(3) EG-Ga-DP-diAsp, 2,4-bis[1-(2-hydroxyethyloxy)ethyl]-Ga-deuteroporphynyl diaspartic acid], for which the tumor/tissue cancer/ kidney is given as 3.45, the tumor/tissue cancer/ liver is 3.00 and the tumor/tissue cancer/ lung came out at 2.87.

For another data set the test system is unchanged. Kind of data set: in vivo hemorrhagic necrosis effect. The arrangement: species or system hamsters; key to Hemorrhagic necrosis effect: four scales of G4, G3, G2 and G1; four scales of G4, G3, G2 and G1; four scales of G4, G3, G2 and G1; four scales of G4, G3, G2 and G1. As to conditions: 24 hours after administration. How it is done:
Cancer bearing hamsters of Experiment 1 were i.v. administered the test substance C6-Ga-DP-diAsp (10) (10 mg/ml) which had been diluted with phosphate buffer at 25 mg/kg bodyweight and 12.5 mg/kg bodyweight respectively. The animals were exsanguinated and autopsied at 24 hours after administration, and observed.
The evaluation was based on the four scales of G4, G3, G2 and G1.
As for `CC(C)=CCC/C(C)=C/COC(C)C1=C(C)C2=Cc3c(C(C)OC/C=C(\C)CCC=C(C)C)c(C)c4[n]3[Mn][n]3c(c(C)c(CCC(=O)NC(CC(=O)O)C(=O)O)c3=CC3=NC(=C4)C(C)=C3CCC(=O)NC(CC(=O)O)C(=O)O)=CC1=N2` (stereo not drawn) [(42) C10(Gera)-Mn-DP-diAsp, 2,4-bis(1-geranyloxyethyl)-Mn-deuteroporphynyl diaspartic acid], the “photograph of cancer masses (Fig. 3)” value is “hemorrhagic necrosis”.

Take `CCCCCCCCOC(C)C1=C(C)C2=Cc3c(C(C)OCCCCCCCC)c(C)c4[n]3[Fe][n]3c(c(C)c(CCC(=O)NC(CC(=O)O)C(=O)O)c3=CC3=NC(=C4)C(C)=C3CCC(=O)NC(CC(=O)O)C(=O)O)=CC1=N2` (stereo not drawn) [(62) C8-Fe-DP-diAsp, 2,4-bis(1-octyloxyethyl)-Fe-deuteroporphynyl diaspartic acid]: the “photograph of cancer masses (Fig. 3)” value was “hemorrhagic necrosis”.

Still in this data set, the particulars now being: intensity of hemorrhagic necrosis at 24 hours following i.v. administration, and pathological study.
For `C=CC1=C(C)C2=Cc3c(C(C)OCCO)c(C)c4[n]3[Ga][n]3c(c(C)c(CCC(=O)NC(CC(=O)O)C(=O)O)c3=CC3=NC(=C4)C(C)=C3CCC(=O)NC(CC(=O)O)C(=O)O)=CC1=N2` (stereo not drawn) [(2) monoEG-Ga-DP-diAsp, 2-[1-(2-hydroxyethyloxy)ethyl]-4-ethenyl-Ga-deuteroporphynyl diaspartic acid], the Hemorrhagic necrosis effect entry is listed as “G1”. Consider `CCCCCCCCOC(C)C1=C(C)C2=Cc3c(C(C)OCCCCCCCC)c(C)c4[n]3[Mn][n]3c(c(C)c(CCC(=O)NC(CC(=O)O)C(=O)O)c3=CC3=NC(=C4)C(C)=C3CCC(=O)NC(CC(=O)O)C(=O)O)=CC1=N2` (stereo not drawn) [(36) C8-Mn-DP-diAsp, 2,4-bis(1-octyloxyethyl)-Mn-deuteroporphynyl diaspartic acid], for which the Hemorrhagic necrosis effect entry is “G3”. Regarding `CCCCCCCCCCOC(C)C1=C(C)C2=Cc3c(C(C)OCCCCCCCCCC)c(C)c4[n]3[Mn][n]3c(c(C)c(CCC(=O)NCC(=O)NC(CC(=O)O)C(=O)O)c3=CC3=NC(=C4)C(C)=C3CCC(=O)NCC(=O)NC(CC(=O)O)C(=O)O)=CC1=N2` (stereo not drawn) [(39) C10-Mn-DP-diGly-diAsp, 2,4-bis(1-decyloxyethyl)-Mn-deuteroporphynyl diglycyldiaspartic acid], the Hemorrhagic necrosis effect entry was “G2”.

For `CCCCCCCCCCOC(C)C1=C(C)C2=Cc3c(C(C)OCCCCCCCCCC)c(C)c4[n]3[Mn][n]3c(c(C)c(CCC(=O)NC(CC(C)C)C(=O)NC(CC(=O)O)C(=O)O)c3=CC3=NC(=C4)C(C)=C3CCC(=O)NC(CC(C)C)C(=O)NC(CC(=O)O)C(=O)O)=CC1=N2` (stereo not drawn) [(40) C10-Mn-DP-diLeu-diAsp, 2,4-bis(1-decyloxyethyl)-Mn-deuteroporphynyl dileucyldiaspartic acid], the Hemorrhagic necrosis effect entry is given as “G2”. The same measure, in the same setting: with `CCCCCCCCCCOC(C)C1=C(C)C2=Cc3c(C(C)OCCCCCCCCCC)c(C)c4[n]3[Mn][n]3c(c(C)c(CCC(=O)NC(Cc5ccccc5)C(=O)NC(CC(=O)O)C(=O)O)c3=CC3=NC(=C4)C(C)=C3CCC(=O)NC(Cc3ccccc3)C(=O)NC(CC(=O)O)C(=O)O)=CC1=N2` (stereo not drawn) [(41) C10-Mn-DP-diPhe-diAsp, 2,4-bis(1-decyloxyethyl)-Mn-deuteroporphynyl diphenylalanyldiaspartic acid] the entry was “G2”; with `CC(C)=CCC/C(C)=C/COC(C)C1=C(C)C2=Cc3c(C(C)OC/C=C(\C)CCC=C(C)C)c(C)c4[n]3[Mn][n]3c(c(C)c(CCC(=O)NC(CC(=O)O)C(=O)O)c3=CC3=NC(=C4)C(C)=C3CCC(=O)NC(CC(=O)O)C(=O)O)=CC1=N2` (stereo not drawn) [(42) C10(Gera)-Mn-DP-diAsp, 2,4-bis(1-geranyloxyethyl)-Mn-deuteroporphynyl diaspartic acid], “G3”. On the same count and under the same terms, under `CC(C)=CCCC(C)CCOC(C)C1=C(C)C2=Cc3c(C(C)OCCC(C)CCC=C(C)C)c(C)c4[n]3[Mn][n]3c(c(C)c(CCC(=O)NC(CC(=O)O)C(=O)O)c3=CC3=NC(=C4)C(C)=C3CCC(=O)NC(CC(=O)O)C(=O)O)=CC1=N2` (stereo not drawn) [(43) C10(Citro)-Mn-DP-diAsp, 2,4-bis(1-citronellyloxyethyl)-Mn-deuteroporphynyl diaspartic acid] stands “G3”; under `CC1=C(CCC(=O)NC(CC(=O)O)C(=O)O)c2cc3[nH]c(cc4nc(cc5[nH]c(cc1n2)c(C(C)OCCC(C)CCCC(C)C)c5C)C(C(C)OCCC(C)CCCC(C)C)=C4C)c(C)c3CCC(=O)NC(CC(=O)O)C(=O)O.[Mn]` (stereo not drawn) [(44) C10(H2Citro)-Mn-DP-diAsp, 2,4-bis(1-dihydrocitronellyloxyethyl)-Mn-deuteroporphynyl diaspartic acid], “G4”; under `C=CC1=C(C)C2=Cc3c(C(C)OCCC(C)CCCC(C)C)c(C)c4[n]3[Mn][n]3c(c(C)c(CCC(=O)NC(CC(=O)O)C(=O)O)c3=CC3=NC(=C4)C(C)=C3CCC(=O)NC(CC(=O)O)C(=O)O)=CC1=N2` (stereo not drawn) [(45) C10(H2Citro,mono)-Mn-DP-diAsp, 2-(1-dihydrocitronellyloxyethyl)-4-ethenyl-Mn-deuteroporphynyl diaspartic acid], “G2”.

As to `C=CC1=C(C)C2=Cc3c(C(C)OCCCCCCCCCCCC)c(C)c4[n]3[Mn][n]3c(c(C)c(CCC(=O)NC(CC(=O)O)C(=O)O)c3=CC3=NC(=C4)C(C)=C3CCC(=O)NC(CC(=O)O)C(=O)O)=CC1=N2` (stereo not drawn) [(49) C12(mono)-Mn-DP-diAsp, 2-(1-dodecyloxyethyl)-4-ethenyl-Mn-deuteroporphynyl diaspartic acid], the Hemorrhagic necrosis effect entry is “G2”.

Consider `CCCCCCCCCCCCCCOC(C)C1=C(C)C2=Cc3c(C(C)OCCCCCCCCCCCCCC)c(C)c4[n]3[Mn][n]3c(c(C)c(CCC(=O)NC(CC(=O)O)C(=O)O)c3=CC3=NC(=C4)C(C)=C3CCC(=O)NC(CC(=O)O)C(=O)O)=CC1=N2` (stereo not drawn) [(51) C14-Mn-DP-diAsp, 2,4-bis(1-tetradecyloxyethyl)-Mn-deuteroporphynyl diaspartic acid], for which the Hemorrhagic necrosis effect result is recorded as “G3”.

On to `CC1=C(CCC(=O)NC(CC(=O)O)C(=O)O)c2cc3[nH]c(cc4nc(cc5[nH]c(cc1n2)c(C(C)OCC1CCCO1)c5C)C(C(C)OCC1CCCO1)=C4C)c(C)c3CCC(=O)NC(CC(=O)O)C(=O)O.[Mn]` (stereo not drawn) [(55) H4Fran-Mn-DP-diAsp, 2,4-bis(1-tetrahydrofurfuryloxyethyl)-Mn-deuteroporphynyl diaspartic acid], for which the Hemorrhagic necrosis effect entry is listed as “G2”. On the same count and under the same terms, with `CC1=C(CCC(=O)NC(CC(=O)O)C(=O)O)C2=NC1=Cc1c(C)c(C(C)OCc3cccnc3)c3[n]1[Mn][n]1c(c(C)c(CCC(=O)NC(CC(=O)O)C(=O)O)c1=C2)=CC1=NC(=C3)C(C)=C1C(C)OCc1cccnc1` (stereo not drawn) [(57) Nct-Mn-DP-diAsp, 2,4-bis(1-nicotynyloxyethyl)-Mn-deuteroporphynyl diaspartic acid] the entry was “G2”. On the same count and under the same terms, with `CCCCCCCCOC(C)C1=C(C)C2=Cc3c(C(C)OCCCCCCCC)c(C)c4[n]3[Fe][n]3c(c(C)c(CCC(=O)NC(CC(=O)O)C(=O)O)c3=CC3=NC(=C4)C(C)=C3CCC(=O)NC(CC(=O)O)C(=O)O)=CC1=N2` (stereo not drawn) [(62) C8-Fe-DP-diAsp, 2,4-bis(1-octyloxyethyl)-Fe-deuteroporphynyl diaspartic acid] the entry was “G3”; with `CCCCCCCCCCCCOC(C)C1=C(C)C2=Cc3c(C(C)OCCCCCCCCCCCC)c(C)c4[n]3[Fe][n]3c(c(C)c(CCC(=O)NC(CC(=O)O)C(=O)O)c3=CC3=NC(=C4)C(C)=C3CCC(=O)NC(CC(=O)O)C(=O)O)=CC1=N2` (stereo not drawn) [(64) C12-Fe-DP-diAsp, 2,4-bis(1-dodecyloxyethyl)-Fe-deuteroporphynyl diaspartic acid], “G3”.

Consider `CCCCCCCCCCOC(C)C1=C(C)C2=Cc3c(C(C)OCCCCCCCCCC)c(C)c4[n]3[Co][n]3c(c(C)c(CCC(=O)NC(CC(=O)O)C(=O)O)c3=CC3=NC(=C4)C(C)=C3CCC(=O)NC(CC(=O)O)C(=O)O)=CC1=N2` (stereo not drawn) [(66) C10-Co-DP-diAsp, 2,4-bis(1-decyloxyethyl)-Co-deuteroporphynyl diaspartic acid], for which the Hemorrhagic necrosis effect entry is recorded as “G1”.

Take `CCCCCCCCCCCCOC(C)C1=C(C)c2cc3[nH]c(cc4nc(cc5[nH]c(cc1n2)c(C)c5C(C)OCCCCCCCCCCCC)C(C)=C4CCC(=O)NC(CC(=O)O)C(=O)O)c(CCC(=O)NC(CC(=O)O)C(=O)O)c3C.[Co]` (stereo not drawn) [(67) C12-Co-DP-diAsp, 2,4-bis(1-dodecyloxyethyl)-Co-deuteroporphynyl diaspartic acid]: the Hemorrhagic necrosis effect entry is reported as “G1”. Turning to `CCCCCCCCCCCCOC(C)C1=C(C)C2=Cc3c(C(C)OCCCCCCCCCCCC)c(C)c4[n]3[Cu][n]3c(c(C)c(CCC(=O)NC(CC(=O)O)C(=O)O)c3=CC3=NC(=C4)C(C)=C3CCC(=O)NC(CC(=O)O)C(=O)O)=CC1=N2` (stereo not drawn) [(70) C12-Cu-DP-diAsp, 2,4-bis(1-dodecyloxyethyl)-Cu-deuteroporphynyl diaspartic acid], the Hemorrhagic necrosis effect entry is recorded as “G1”.

Regarding `CCCCCCCCCCCCOC(C)C1=C(C)C2=Cc3c(C(C)OCCCCCCCCCCCC)c(C)c4[n]3[Zn][n]3c(c(C)c(CCC(=O)NC(CC(=O)O)C(=O)O)c3=CC3=NC(=C4)C(C)=C3CCC(=O)NC(CC(=O)O)C(=O)O)=CC1=N2` (stereo not drawn) [(73) C12-Zn-DP-diAsp, 2,4-bis(1-dodecyloxyethyl)-Zn-deuteroporphynyl diaspartic acid], the Hemorrhagic necrosis effect result is on record as “G2”.
